# Results published in patent US11008325B2, “Inhibitors of cancer invasion, attachment, and/or metastasis” (VIRGINIA COMMONWEALTH UNIVERSITY, priority 2016, dated 2021).
# Legend:
# prostate adenocarcinoma = assay: Hi-myc spontaneous prostate cancer transgenic model; type: in vivo, Hi-myc mice; conditions: 30 mg/kg I.P., 9 times for the first three weeks
# Protocol: FIG. 19A-19F. PDZ1i suppresses prostate cancer metastasis and tumor progression. FIG. 19A) Survival data for athymic nude mice in which DMSO or PDZ1i pre-treated ARCaPM cells were injected. FIG. 19B) Survival data for athymic nude mice which were injected with (n=5, each group) ARCaPM-Luc (1×10^6 cells in 100 μl saline) through an intracardiac route. Mice received either vehicle or PDZ1i every alternative day (9 injections during the first […]) and maintained until they needed to be euthanized. FIG. 19C) Survival data for C57BL/6 mice injected through the intracardiac route with RM1-Luc. Vehicle or PDZ1i was administered through intraperitoneal injection every alternate day (total 3 injections during the first week). Survival curves were generated using 6 control vehicle-treated and 5 PDZ1i-treated. Kaplan—Meier survival curves were prepared using Graph Pad software. […] Graphical representation of the average prostate weights from control and treated groups. FIG. 19E and FIG. 19F) Photomicrographs representing the histological changes in prostate sections obtained from 6-month old Hi-Myc mice receiving either vehicle (FIG. 19E) or PDZ1i (FIG. 19F). To evaluate potential therapeutic efficacy of PDZ1i four sets of in vivo experiments were conducted. […]
# ARCaPM-Luc cells = assay: ARCaPM-Luc experimental metastasis model, PDZ1i treatment; type: in vivo, athymic nude mice; conditions: 30 mg/kg body weight I.P.
# Protocol: FIG. 19A-19F. PDZ1i suppresses prostate cancer metastasis and tumor progression. FIG. 19A) Survival data for athymic nude mice in which DMSO or PDZ1i pre-treated ARCaPM cells were injected. FIG. 19B) Survival data for athymic nude mice which were injected with (n=5, each group) ARCaPM-Luc (1×10^6 cells in 100 μl saline) through an intracardiac route. Mice received either vehicle or PDZ1i every alternative day (9 injections during the first three months) and maintained until they needed to be euthanized. FIG. 19C) Survival data for C57BL/6 mice injected through the intracardiac route with RM1-Luc. Vehicle or PDZ1i was administered through intraperitoneal injection every alternate day (total 3 injections during the first week). Survival curves were generated using 6 control vehicle-treated and 5 PDZ1i-treated. Kaplan—Meier survival curves were prepared using Graph Pad software. […] Graphical representation of the average prostate weights from control and treated groups. FIG. 19E and FIG. 19F) Photomicrographs representing the histological changes in prostate sections obtained from 6-month old Hi-Myc mice receiving either vehicle (FIG. 19E) or PDZ1i (FIG. 19F).
# To evaluate potential therapeutic efficacy of PDZ1i four sets of in vivo experiments were conducted. […]
compound,measurement,setting,value
"Cc1cc(NC(=O)c2nc3[nH]c4c(c(=O)n3n2)CCC4)c(C)cc1NC(=O)CCc1nnc(-c2ccccc2)o1 [113B7, N-(2,5-dimethyl-4-(3-(5-phenyl-1,3,4-oxadiazol-2-yl)propanamido)phenyl)-8-oxo-5,6,7,8-tetrahydro-4H-cyclopenta[d][1,2,4]triazolo[1,5-a]pyrimidine-2-carboxamide]",size and weight of prostates,prostate adenocarcinoma,significantly less
same,metastatic lesions by BLI,ARCaPM-Luc cells,significantly fewer lesions
same,survival,ARCaPM-Luc cells,prolonged survival
